# From ChEMBL document CHEMBL3763052, “Novel N-acyl-carbazole derivatives as 5-HT7R antagonists” (Eur J Med Chem, 2016)
# Experiments:
# [1] = molecular target: T1, 5-hydroxytryptamine receptor 7 (Homo sapiens, UniProt P34969); experiment: Displacement of [3H]LSD from 5-HT7 receptor (unknown origin) expressed in CHO-K1 cells by liquid scintillation counting method; type: cell-based
# [2] = molecular target: 5-hydroxytryptamine receptor 1D (Homo sapiens, UniProt P28221); experiment: Binding affinity to recombinant 5-HT1D receptor (unknown origin) after 1.5 hrs by radioligand displacement assay
# 5-hydroxytryptamine receptor 1D, sequence (P28221 whole entry): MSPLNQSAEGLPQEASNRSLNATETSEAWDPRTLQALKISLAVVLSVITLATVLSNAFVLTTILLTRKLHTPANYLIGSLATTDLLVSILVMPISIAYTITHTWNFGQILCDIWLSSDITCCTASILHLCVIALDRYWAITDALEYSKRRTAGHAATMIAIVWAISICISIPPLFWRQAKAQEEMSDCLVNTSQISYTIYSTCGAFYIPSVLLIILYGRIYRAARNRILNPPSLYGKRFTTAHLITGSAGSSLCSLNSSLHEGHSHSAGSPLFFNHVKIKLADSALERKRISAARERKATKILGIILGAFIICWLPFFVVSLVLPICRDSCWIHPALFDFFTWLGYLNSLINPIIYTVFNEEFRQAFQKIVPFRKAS
# [3] = molecular target: T2, 5-hydroxytryptamine receptor 3A (Homo sapiens) (UniProt P46098); experiment: Binding affinity to recombinant 5-HT3 receptor (unknown origin) at 10 uM after 1.5 hrs by radioligand displacement assay
# T2 sequence (whole entry): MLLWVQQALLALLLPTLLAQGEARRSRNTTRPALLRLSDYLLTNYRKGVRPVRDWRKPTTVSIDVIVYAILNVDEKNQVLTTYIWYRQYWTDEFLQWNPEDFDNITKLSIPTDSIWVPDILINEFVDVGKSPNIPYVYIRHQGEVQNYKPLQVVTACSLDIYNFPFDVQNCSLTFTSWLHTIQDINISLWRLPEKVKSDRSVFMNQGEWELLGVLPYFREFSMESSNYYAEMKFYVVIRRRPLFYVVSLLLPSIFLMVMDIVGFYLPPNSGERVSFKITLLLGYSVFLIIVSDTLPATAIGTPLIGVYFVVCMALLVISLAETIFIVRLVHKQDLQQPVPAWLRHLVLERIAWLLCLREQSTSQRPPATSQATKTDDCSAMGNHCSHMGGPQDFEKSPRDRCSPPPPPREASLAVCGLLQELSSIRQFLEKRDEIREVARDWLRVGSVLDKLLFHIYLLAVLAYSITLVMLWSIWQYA
# [4] = molecular target: T3, 5-hydroxytryptamine receptor 2A (Homo sapiens, UniProt P28223); experiment: Binding affinity to recombinant 5-HT2A receptor (unknown origin) at 10 uM after 1.5 hrs by radioligand displacement assay
# T3 sequence (P28223 whole entry): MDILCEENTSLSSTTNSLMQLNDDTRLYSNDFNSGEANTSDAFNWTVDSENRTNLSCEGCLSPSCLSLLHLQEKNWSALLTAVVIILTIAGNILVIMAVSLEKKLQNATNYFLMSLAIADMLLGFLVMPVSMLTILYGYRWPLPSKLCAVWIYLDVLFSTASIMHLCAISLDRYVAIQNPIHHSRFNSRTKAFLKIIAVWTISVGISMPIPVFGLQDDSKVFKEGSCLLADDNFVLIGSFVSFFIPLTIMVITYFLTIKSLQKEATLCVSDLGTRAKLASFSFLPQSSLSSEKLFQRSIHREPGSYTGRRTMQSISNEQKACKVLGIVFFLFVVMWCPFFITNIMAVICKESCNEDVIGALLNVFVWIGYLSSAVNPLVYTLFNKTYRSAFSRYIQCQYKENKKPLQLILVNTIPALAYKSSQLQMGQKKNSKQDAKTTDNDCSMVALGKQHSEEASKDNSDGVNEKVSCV
# [5] = molecular target: T4, 5-hydroxytryptamine receptor 1A (Homo sapiens, UniProt P08908); experiment: Binding affinity to recombinant 5-HT1A receptor (unknown origin) after 1.5 hrs by radioligand displacement assay
# T4 sequence (P08908 whole entry): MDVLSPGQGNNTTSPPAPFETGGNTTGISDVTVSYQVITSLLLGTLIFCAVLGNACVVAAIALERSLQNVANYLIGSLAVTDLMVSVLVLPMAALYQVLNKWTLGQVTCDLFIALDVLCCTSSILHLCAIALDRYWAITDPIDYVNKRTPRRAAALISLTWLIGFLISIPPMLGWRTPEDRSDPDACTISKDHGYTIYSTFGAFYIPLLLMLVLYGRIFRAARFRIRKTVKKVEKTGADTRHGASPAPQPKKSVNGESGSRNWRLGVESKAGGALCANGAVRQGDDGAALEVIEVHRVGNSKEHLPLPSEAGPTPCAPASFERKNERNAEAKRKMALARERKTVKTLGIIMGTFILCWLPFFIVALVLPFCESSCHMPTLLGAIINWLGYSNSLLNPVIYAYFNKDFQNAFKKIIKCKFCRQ
# Homo sapiens [6] = species on record: Homo sapiens; experiment: Selectivity index, ratio of Ki for recombinant 5-HT6 receptor (unknown origin) to Ki for recombinant 5-HT7 receptor (unknown origin)
# [7] = molecular target: 5-hydroxytryptamine receptor 2B (Homo sapiens, UniProt P41595); experiment: Binding affinity to recombinant 5-HT2B receptor (unknown origin) after 1.5 hrs by radioligand displacement assay
# 5-hydroxytryptamine receptor 2B, sequence (P41595 whole entry): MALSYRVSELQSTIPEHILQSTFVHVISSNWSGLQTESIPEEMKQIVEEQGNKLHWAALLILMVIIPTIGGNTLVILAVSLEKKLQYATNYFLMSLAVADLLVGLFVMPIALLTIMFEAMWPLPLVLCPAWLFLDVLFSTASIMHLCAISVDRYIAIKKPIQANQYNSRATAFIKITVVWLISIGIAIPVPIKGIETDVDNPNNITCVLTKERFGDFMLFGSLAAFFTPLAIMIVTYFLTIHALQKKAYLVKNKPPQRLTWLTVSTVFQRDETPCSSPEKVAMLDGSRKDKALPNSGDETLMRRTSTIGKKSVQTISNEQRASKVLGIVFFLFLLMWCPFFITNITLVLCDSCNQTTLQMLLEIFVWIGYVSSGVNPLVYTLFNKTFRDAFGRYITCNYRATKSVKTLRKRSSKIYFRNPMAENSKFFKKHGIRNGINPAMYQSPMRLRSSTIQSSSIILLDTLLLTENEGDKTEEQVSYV
# Homo sapiens [8] = species on record: Homo sapiens; experiment: Selectivity index, ratio of Ki for recombinant 5-HT2B receptor (unknown origin) to Ki for recombinant 5-HT7 receptor (unknown origin)
# [9] = molecular target: T5, 5-hydroxytryptamine receptor 1B (Homo sapiens, UniProt P28222); experiment: Binding affinity to recombinant 5-HT1B receptor (unknown origin) at 10 uM after 1.5 hrs by radioligand displacement assay
# T5 sequence (P28222 whole entry): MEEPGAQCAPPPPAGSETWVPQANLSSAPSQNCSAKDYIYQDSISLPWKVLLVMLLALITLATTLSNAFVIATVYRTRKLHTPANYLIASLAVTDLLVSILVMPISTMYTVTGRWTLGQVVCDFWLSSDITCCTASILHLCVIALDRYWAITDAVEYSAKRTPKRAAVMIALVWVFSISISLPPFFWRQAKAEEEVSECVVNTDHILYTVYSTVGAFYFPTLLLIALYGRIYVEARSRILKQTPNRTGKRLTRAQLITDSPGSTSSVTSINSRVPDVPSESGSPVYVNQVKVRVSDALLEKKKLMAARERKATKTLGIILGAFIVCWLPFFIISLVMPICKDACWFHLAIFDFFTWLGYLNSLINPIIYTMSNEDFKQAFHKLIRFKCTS
# Homo sapiens [10] = species on record: Homo sapiens; experiment: Selectivity index, ratio of Ki for recombinant 5-HT2C receptor (unknown origin) to Ki for recombinant 5-HT7 receptor (unknown origin)
# Homo sapiens [11] = species on record: Homo sapiens; experiment: Selectivity index, ratio of Ki for recombinant 5-HT5 receptor (unknown origin) to Ki for recombinant 5-HT7 receptor (unknown origin)
# [12] = molecular target: T1, 5-hydroxytryptamine receptor 7; experiment: Binding affinity to recombinant 5-HT7 receptor (unknown origin) after 1.5 hrs by radioligand displacement assay
# [13] = molecular target: T6, 5-hydroxytryptamine receptor 2C (Homo sapiens, UniProt P28335); experiment: Binding affinity to recombinant 5-HT2C receptor (unknown origin) after 1.5 hrs by radioligand displacement assay
# T6 sequence (P28335 whole entry): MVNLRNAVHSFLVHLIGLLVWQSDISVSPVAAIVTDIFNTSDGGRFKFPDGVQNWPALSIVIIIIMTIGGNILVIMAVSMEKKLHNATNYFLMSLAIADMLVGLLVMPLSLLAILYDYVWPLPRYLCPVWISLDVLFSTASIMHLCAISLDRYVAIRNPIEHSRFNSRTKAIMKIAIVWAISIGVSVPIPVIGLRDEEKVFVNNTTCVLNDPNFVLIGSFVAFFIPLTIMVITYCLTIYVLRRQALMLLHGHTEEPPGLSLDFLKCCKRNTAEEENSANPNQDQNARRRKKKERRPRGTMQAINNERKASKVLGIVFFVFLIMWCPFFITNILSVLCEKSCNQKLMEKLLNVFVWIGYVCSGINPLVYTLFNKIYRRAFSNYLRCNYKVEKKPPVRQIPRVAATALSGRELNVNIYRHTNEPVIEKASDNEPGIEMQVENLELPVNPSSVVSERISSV
# [14] = molecular target: T7, 5-hydroxytryptamine receptor 6 (Homo sapiens, UniProt P50406); experiment: Binding affinity to recombinant 5-HT6 receptor (unknown origin) after 1.5 hrs by radioligand displacement assay
# T7 sequence (P50406 whole entry): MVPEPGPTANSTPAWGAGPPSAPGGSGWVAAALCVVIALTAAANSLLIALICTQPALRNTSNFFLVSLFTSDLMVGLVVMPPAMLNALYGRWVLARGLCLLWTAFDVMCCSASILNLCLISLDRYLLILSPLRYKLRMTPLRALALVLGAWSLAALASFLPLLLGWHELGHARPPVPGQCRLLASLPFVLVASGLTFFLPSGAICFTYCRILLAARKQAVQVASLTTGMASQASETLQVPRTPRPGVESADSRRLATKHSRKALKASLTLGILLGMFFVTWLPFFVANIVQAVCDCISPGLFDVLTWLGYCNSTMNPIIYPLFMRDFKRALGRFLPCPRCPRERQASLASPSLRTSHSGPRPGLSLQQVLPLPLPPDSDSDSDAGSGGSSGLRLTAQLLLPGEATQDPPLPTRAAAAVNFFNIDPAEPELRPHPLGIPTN
# [15] = molecular target: 5-hydroxytryptamine receptor 5A (Homo sapiens, UniProt P47898); experiment: Binding affinity to recombinant 5-HT5 receptor (unknown origin) after 1.5 hrs by radioligand displacement assay
# 5-hydroxytryptamine receptor 5A, sequence (P47898 whole entry): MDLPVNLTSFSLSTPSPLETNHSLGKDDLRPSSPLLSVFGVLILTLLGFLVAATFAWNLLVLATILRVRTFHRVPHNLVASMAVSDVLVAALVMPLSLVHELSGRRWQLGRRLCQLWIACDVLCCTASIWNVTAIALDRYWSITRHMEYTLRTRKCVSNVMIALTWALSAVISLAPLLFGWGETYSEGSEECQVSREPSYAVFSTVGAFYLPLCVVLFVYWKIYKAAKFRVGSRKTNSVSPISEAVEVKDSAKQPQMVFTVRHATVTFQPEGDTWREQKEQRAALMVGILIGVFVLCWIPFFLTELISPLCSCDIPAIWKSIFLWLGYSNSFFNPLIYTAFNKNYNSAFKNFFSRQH
# Homo sapiens [16] = species on record: Homo sapiens; experiment: Selectivity index, ratio of Ki for recombinant 5-HT1D receptor (unknown origin) to Ki for recombinant 5-HT7 receptor (unknown origin)
# Homo sapiens [17] = species on record: Homo sapiens; experiment: Selectivity index, ratio of Ki for recombinant 5-HT1A receptor (unknown origin) to Ki for recombinant 5-HT7 receptor (unknown origin)
# [18] = molecular target: T3, 5-hydroxytryptamine receptor 2A; experiment: Binding affinity to recombinant 5-HT2A receptor (unknown origin) after 1.5 hrs by radioligand displacement assay
# [19] = molecular target: T1, 5-hydroxytryptamine receptor 7; experiment: Displacement of [3H]LSD from 5-HT7 receptor (unknown origin) expressed in CHO-K1 cells at 10 uM by liquid scintillation counting method; type: cell-based
# Mus musculus = experiment: Antidepressant activity in ICR mouse assessed as immobility time at 50 mg/kg, iv administered 30 mins before testing by forced swim test (reference value: 159.1 sec); type: functional
# [20] = molecular target: T7, 5-hydroxytryptamine receptor 6; experiment: Binding affinity to recombinant 5-HT6 receptor (unknown origin) at 10 uM after 1.5 hrs by radioligand displacement assay
# [21] = molecular target: T5, 5-hydroxytryptamine receptor 1B; experiment: Binding affinity to recombinant 5-HT1B receptor (unknown origin) after 1.5 hrs by radioligand displacement assay
# T1 sequence (P34969 whole entry): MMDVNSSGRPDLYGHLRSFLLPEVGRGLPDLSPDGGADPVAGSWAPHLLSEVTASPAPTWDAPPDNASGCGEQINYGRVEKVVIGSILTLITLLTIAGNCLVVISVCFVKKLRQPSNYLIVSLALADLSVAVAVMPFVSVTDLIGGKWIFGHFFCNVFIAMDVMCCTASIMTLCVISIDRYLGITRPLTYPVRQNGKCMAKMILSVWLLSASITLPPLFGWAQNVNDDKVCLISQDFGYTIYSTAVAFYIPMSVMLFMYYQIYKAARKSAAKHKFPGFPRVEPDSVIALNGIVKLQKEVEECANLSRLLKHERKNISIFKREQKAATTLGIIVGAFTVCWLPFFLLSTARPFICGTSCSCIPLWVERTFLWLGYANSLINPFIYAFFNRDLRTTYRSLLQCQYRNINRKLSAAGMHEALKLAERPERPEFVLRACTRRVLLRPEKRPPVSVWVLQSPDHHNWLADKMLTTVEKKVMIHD
smiles,measurement,setting,value
O=C(CCCCN1CCC(c2ccccc2)CC1)n1c2ccccc2c2ccccc21,Ki,[1],153 nM
CC1CC(C)CN(CCCCC(=O)n2c3ccccc3c3ccccc32)C1 (stereo unspecified),Ki,[1],1400 nM
CC(=O)N1CCN(CCCCCC(=O)n2c3ccccc3c3ccccc32)CC1,Ki,[1],2340 nM
O=C(CCCCN1CCC(Cc2ccccc2)CC1)n1c2ccccc2c2ccccc21,Ki,[1],312 nM
O=C(CCCCCN1CCN(c2ccccc2O)CC1)n1c2ccccc2c2ccccc21,Ki,[2],28 nM
same,inhibition,[3],41%
same,inhibition,[4],13%
same,Ki,[5],148 nM
same,Ratio Ki,Homo sapiens [6],16
same,Ki,[7],101 nM
same,Ratio Ki,Homo sapiens [8],2.7
same,inhibition,[9],48%
same,Ratio Ki,Homo sapiens [10],37
same,Ratio Ki,Homo sapiens [11],25
same,Ki,[1],38 nM
same,Ki,[12],38 nM
same,Ki,[13],1390 nM
same,Ki,[14],595 nM
same,Ki,[15],933 nM
same,Ratio Ki,Homo sapiens [16],0.74
same,Ratio Ki,Homo sapiens [17],3.9
CC(=O)N1CCN(CCCCC(=O)n2c3ccccc3c3ccccc32)CC1,Ki,[1],1070 nM
O=C(CCCCN1CCN(c2ccccc2O)CC1)n1c2ccccc2c2ccccc21,Ki,[2],1400 nM
same,inhibition,[3],41%
same,Ki,[5],22 nM
same,Ratio Ki,Homo sapiens [6],10
same,Ki,[7],83 nM
same,Ratio Ki,Homo sapiens [8],0.97
same,inhibition,[9],37%
same,Ratio Ki,Homo sapiens [10],18
same,Ratio Ki,Homo sapiens [11],3.9
same,Ki,[1],86 nM
same,Ki,[13],1520 nM
same,Ki,[18],257 nM
same,Ki,[14],879 nM
same,Ki,[15],337 nM
same,Ratio Ki,Homo sapiens [16],16
same,Ratio Ki,Homo sapiens [17],0.26
O=C(CCCCCN1CCCC1)n1c2ccccc2c2ccccc21,Ki,[1],1050 nM
CCCCN(C)CCCCC(=O)n1c2ccccc2c2ccccc21,Ki,[1],1280 nM
CN1CCN(CCCCC(=O)n2c3ccccc3c3ccccc32)CC1,inhibition,[19],40%
O=C(CCCCN1CCCC1)n1c2ccccc2c2ccccc21,Ki,[1],2160 nM
CC1CCN(CCCCC(=O)n2c3ccccc3c3ccccc32)CC1,Ki,[1],592 nM
CNCCC(Oc1ccc(C(F)(F)F)cc1)c1ccccc1 (stereo unspecified) [FLUOXETINE],Time,Mus musculus,83.9 s
CC1CC(C)CN(CCCCCC(=O)n2c3ccccc3c3ccccc32)C1 (stereo unspecified),Ki,[1],833 nM
O=C(CCCCCN1CCCCCC1)n1c2ccccc2c2ccccc21,Ki,[1],616 nM
CN1CCN(CCCCCC(=O)n2c3ccccc3c3ccccc32)CC1,Ki,[1],1910 nM
CC1CCCN(CCCCCC(=O)n2c3ccccc3c3ccccc32)C1 (stereo unspecified),Ki,[1],550 nM
CCCCN(C)CCCCCC(=O)n1c2ccccc2c2ccccc21,Ki,[1],680 nM
O=C(CCCCCN1CCC(Cc2ccccc2)CC1)n1c2ccccc2c2ccccc21,Ki,[1],252 nM
O=C(CCCCCN1CCC(c2ccccc2)CC1)n1c2ccccc2c2ccccc21,Ki,[1],157 nM
O=C(CCCCN1CCCCCC1)n1c2ccccc2c2ccccc21,Ki,[1],949 nM
O=C(CCCCN1CCOCC1)n1c2ccccc2c2ccccc21,inhibition,[19],47%
COc1ccccc1N1CCN(CCCCC(=O)n2c3ccccc3c3ccccc32)CC1,Ki,[2],462 nM
same,inhibition,[3],24%
same,Ki,[5],122 nM
same,Ki,[7],93 nM
same,Ratio Ki,Homo sapiens [8],3.1
same,Ratio Ki,Homo sapiens [10],39
same,Ratio Ki,Homo sapiens [11],0.17
same,Ki,[1],30 nM
same,Ki,[12],30 nM
same,inhibition,[20],44%
same,Ki,[13],1170 nM
same,Ki,[18],451 nM
same,Ki,[21],3740 nM
same,Ki,[15],5 nM
same,Ratio Ki,Homo sapiens [16],15
same,Ratio Ki,Homo sapiens [17],4.1
CN(CCCCC(=O)n1c2ccccc2c2ccccc21)Cc1ccccc1,Ki,[1],513 nM
O=C(CCCCCN1CCOCC1)n1c2ccccc2c2ccccc21,Ki,[1],1310 nM
